Among the data in patent publication US8546380B2, “Aminodihydrothiazine derivatives” (Shionogi & Co., Ltd., priority 2005, dated 2013) are IC50 and melting point values, retold here.

Read-outs that look alike come from different tables or passages of the source.

The target of data set [1] is recombinant human BACE-1 protein (Homo sapiens (Human), UniProt P56817). The experiment in a line: Measurement of Inhibition of β-Secretase Activity. Conditions: 3 h at 30° C., pH5.0, read-out: IC50 value. The format is biochemical. A digest of the protocol: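 Recombinant human BACE-1 incubated with compound and Eu-cryptate-labelled biotinylated peptide substrate 3 h at 30° C in 50 mM sodium acetate pH 5.0, 0.008% Triton X-100. Streptavidin-XL665 in KF-containing phosphate buffer pH 7.0 then added, 1 h at 30° C, for time-resolved FRET read-out.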
recombinant human BACE-1 protein, sequence (P56817 46-501): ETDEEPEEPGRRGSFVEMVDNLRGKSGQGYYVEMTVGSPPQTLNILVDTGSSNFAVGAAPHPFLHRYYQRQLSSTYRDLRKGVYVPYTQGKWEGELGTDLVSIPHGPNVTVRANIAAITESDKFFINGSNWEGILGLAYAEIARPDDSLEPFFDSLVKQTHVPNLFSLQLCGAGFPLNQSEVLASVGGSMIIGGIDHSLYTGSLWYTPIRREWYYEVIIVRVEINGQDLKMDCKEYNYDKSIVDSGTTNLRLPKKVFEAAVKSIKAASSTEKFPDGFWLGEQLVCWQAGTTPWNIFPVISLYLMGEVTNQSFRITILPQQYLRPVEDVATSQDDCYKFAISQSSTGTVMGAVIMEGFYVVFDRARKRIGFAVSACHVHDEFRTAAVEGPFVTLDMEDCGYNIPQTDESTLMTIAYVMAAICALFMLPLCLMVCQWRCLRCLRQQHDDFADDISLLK

[2] abbreviates: recombinant human BACE-1 protein.
Where [3] appears, read: fluorescence-quenched peptide substrate 18 nM, BACE-1 7.4 nM.

Turning to `CC(C)Oc1cc(NC(=O)c2ccc(Cl)cn2)cc(C2(C)CCSC(N)=N2)c1.Cl` (stereo not drawn) [Compound 1135], the melting point (commonly the temperature of the solid-liquid transition) is 255 to 260 °C (dec.). For the same molecule, in data set [1] (setting [2]), the IC50 (usually the point on the concentration scale where inhibition reaches its midpoint) turned out to be 2300 nM.
Regarding `CC1(c2ccc3ccccc3c2)CCSC(N)=N1.Cl` (stereo not drawn) [Compound 3], the melting point is 285 °C (dec.). For the same molecule, the IC50 in data set [1] (setting [3]) is under 100000 nM.
For `Cc1ccc(C(=O)Nc2cccc(C3(C)CCSC(N)=N3)c2)nc1` (stereo not drawn) [Compound 528], in that order: 173 to 174 °C and under 100000 nM.
`CC1(c2cccc(/C=C/C(=O)Nc3ccc(Cl)cn3)c2)CCSC(N)=N1.Cl.Cl` (stereo not drawn) [Compound 504] gave a melting point of 209 to 219 °C. Further, the IC50 in data set [1] (setting [2]) stood at 2500 nM.
Take `Cl.NC1=NC(c2cccc(NC(=O)c3ccc(Cl)cn3)c2)CCS1` (stereo not drawn) [Compound 740]: the melting point was 250 °C (dec.). Further, in data set [1] (setting [2]), the IC50 came out at 505 nM.
`CC1(c2ccc3c(c2)OCCO3)CCSC(N)=N1` (stereo not drawn) [Compound 18] gave a melting point of 181 to 183 °C. In addition, the IC50 in data set [1] (setting [3]) was under 100000 nM.
Turning to `CC1(c2cccc(NC(=O)c3ccc(C(F)(F)F)cc3)c2)CCSC(N)=N1` (stereo not drawn) [Compound 26], the melting point was 182 to 184 °C. Also, the IC50 in data set [1] (setting [2]) was 1980 nM.
Consider `CC1(c2cccc(/C=N/OCc3ccccn3)c2)CCSC(N)=N1` (stereo not drawn) [Compound 1193], for which the melting point was 182 to 183 °C. For the same molecule, in data set [1] (setting [3]), the IC50 is under 100000 nM.
For `CC1(c2ccc(Oc3ccccc3)cc2)CCSC(N)=N1` (stereo not drawn) [Compound 1055], in that order: 169 to 170 °C and under 100000 nM.
On to `CC1(c2cc(Br)cc(NC(=O)c3ccno3)c2)CCSC(N)=N1.Cl` (stereo not drawn) [Compound 1132], for which the melting point is 175 to 180 °C (dec.). For the same molecule, in data set [1] (setting [2]), the IC50 stood at 2560 nM.
In the case of `CC1(c2cccc(Br)c2)CCSC(N)=N1.Cl` (stereo not drawn) [Compound 339], the melting point is 217 to 218 °C. For the same molecule, the IC50 in data set [1] (setting [3]) was under 100000 nM.
For `CC1(c2ccc(F)c(OCCCc3ccccc3)c2)CCSC(N)=N1.Cl` (stereo not drawn) [Compound 1069], in that order: 194 to 196 °C and under 100000 nM.
Molecule `CC1(c2cc(NC(=O)c3ccc(Cl)cn3)ccc2Cl)CCSC(N)=N1.Cl` (stereo not drawn) [Compound 1199] registered a melting point of 274 to 283 °C. For the same molecule, the IC50 in data set [1] (setting [2]) is 32 nM.
For `CC1(c2cccc(NC(=O)c3ccc(Cl)cn3)c2Cl)CCSC(N)=N1` (stereo not drawn) [Compound 813], the melting point was in the range of 204 to 205 °C. Also, the IC50 in data set [1] (setting [3]) is under 100000 nM.
The like results for `COC(=O)c1cc(C(=O)Nc2cccc(C3(C)CCSC(N)=N3)c2)nn1C` (stereo not drawn) [Compound 687] were, in that order, 164 to 167 °C and under 100000 nM.
